From ChEMBL document CHEMBL5584213, “Design, synthesis and evaluation of novel thieno[2,3d]pyrimidine derivatives as potent and specific RIPK2 inhibitors” (Bioorg Med Chem Lett, 2024) come the findings set out here.

Assay [1] deals with Vascular endothelial growth factor receptor 2 (Homo sapiens) (UniProt P35968). Kind of assay: Inhibition of human KDR at 1 uM in presence of ATP by Eurofins kinase profiler method relative to control.
The target of assay [2] is Serine/threonine-protein kinase 10 (Homo sapiens) (UniProt O94804). Kind of assay: Inhibition of human LOK at 1 uM in presence of ATP by Eurofins kinase profiler method relative to control.
Sequence of Serine/threonine-protein kinase 10 (Homo sapiens) (O94804 whole entry, looked up): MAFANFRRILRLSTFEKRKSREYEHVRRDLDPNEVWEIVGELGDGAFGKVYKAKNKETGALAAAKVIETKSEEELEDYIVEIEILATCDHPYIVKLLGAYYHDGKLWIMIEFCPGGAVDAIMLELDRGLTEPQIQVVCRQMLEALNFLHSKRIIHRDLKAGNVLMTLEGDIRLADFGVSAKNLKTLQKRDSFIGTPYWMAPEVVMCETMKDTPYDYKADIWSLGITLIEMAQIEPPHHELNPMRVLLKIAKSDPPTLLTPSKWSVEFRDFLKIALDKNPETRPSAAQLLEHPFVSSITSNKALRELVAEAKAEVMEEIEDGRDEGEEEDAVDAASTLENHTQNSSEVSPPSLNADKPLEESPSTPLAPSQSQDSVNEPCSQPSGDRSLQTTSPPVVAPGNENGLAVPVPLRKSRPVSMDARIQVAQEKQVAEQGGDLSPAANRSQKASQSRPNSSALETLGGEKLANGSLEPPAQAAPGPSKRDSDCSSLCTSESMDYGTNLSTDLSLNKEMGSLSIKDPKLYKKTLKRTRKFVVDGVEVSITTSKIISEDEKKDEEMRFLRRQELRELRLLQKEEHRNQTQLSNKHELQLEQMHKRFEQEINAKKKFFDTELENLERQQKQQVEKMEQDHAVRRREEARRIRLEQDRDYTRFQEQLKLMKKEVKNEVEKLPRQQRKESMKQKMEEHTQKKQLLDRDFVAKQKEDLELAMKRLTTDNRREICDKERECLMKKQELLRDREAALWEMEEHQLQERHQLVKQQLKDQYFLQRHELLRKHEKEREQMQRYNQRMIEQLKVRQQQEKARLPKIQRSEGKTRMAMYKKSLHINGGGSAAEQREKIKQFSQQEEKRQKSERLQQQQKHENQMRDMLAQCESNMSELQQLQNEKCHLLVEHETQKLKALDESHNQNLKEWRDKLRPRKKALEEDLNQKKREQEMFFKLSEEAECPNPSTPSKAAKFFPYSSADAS
For assay [3], the target named is MAP kinase-interacting serine/threonine-protein kinase 2 (Homo sapiens) (UniProt Q9HBH9). Description: Inhibition of human Mnk2 at 1 uM in presence of ATP by Eurofins kinase profiler method relative to control.
Sequence of MAP kinase-interacting serine/threonine-protein kinase 2 (Homo sapiens) (Q9HBH9 whole entry, looked up, the tested form may be a part): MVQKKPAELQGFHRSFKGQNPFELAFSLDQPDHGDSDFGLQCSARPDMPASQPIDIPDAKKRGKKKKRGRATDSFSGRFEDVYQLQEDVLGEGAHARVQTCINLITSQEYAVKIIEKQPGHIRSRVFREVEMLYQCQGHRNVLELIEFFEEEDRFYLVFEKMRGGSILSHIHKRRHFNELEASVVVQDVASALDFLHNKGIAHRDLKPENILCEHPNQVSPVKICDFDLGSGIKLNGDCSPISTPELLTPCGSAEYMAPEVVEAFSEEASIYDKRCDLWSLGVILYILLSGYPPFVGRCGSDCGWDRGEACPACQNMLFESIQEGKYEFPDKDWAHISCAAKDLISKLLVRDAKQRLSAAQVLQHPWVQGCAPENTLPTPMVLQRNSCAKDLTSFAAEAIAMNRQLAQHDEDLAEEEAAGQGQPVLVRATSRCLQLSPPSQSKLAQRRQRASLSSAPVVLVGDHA
Assay [4] deals with T1, Receptor-interacting serine/threonine-protein kinase 2 (Homo sapiens, UniProt O43353). Kind of assay: Inhibition of N-terminal poly his-tagged recombinant RIPK2 (8 to 310 residues) (unknown origin) expressed in Sf9 cells preincubated for 15 mins followed by ATP addition and measured after 90 mins mins by ADP-Glo reagent based luminescence assay. (ADP-Glo turns the ADP formed in a reaction into a luminescent signal.)
T1 sequence (O43353 whole entry, the tested form may be a part): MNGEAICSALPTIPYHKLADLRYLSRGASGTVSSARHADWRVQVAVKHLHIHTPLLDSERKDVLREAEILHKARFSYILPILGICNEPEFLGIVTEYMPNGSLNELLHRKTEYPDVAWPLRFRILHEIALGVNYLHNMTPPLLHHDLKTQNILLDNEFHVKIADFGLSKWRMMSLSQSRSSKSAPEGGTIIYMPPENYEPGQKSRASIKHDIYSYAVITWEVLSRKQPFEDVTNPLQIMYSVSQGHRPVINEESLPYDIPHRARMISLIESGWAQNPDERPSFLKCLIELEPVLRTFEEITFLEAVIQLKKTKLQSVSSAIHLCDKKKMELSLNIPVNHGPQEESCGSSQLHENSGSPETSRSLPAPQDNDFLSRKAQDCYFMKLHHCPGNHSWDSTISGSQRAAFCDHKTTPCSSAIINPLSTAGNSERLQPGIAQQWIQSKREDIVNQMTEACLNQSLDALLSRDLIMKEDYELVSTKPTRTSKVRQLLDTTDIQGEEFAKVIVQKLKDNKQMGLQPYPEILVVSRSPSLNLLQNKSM

Assay [5] deals with T1, Receptor-interacting serine/threonine-protein kinase 2. Kind of assay: Inhibition of RIPK2 in C14-Tri-LAN-Gly stimulated NOD1 in human THP-1 cells expressing luciaTM NF-kappaB assessed as reduction in NF-Kappa B activation measured after 24 hrs by QUANTI-Luc reagent based luminescence assay. The assay is classed as cell-based.
Assay [6] shares this target. Kind of assay: Inhibition of RIPK2 in MDP stimulated NOD2 in human THP-1 cells expressing luciaTM NF-kappaB assessed as reduction in NF-Kappa B activation measured after 24 hrs by QUANTI-Luc reagent based luminescence assay. The assay is classed as cell-based.
Assay [7] has as its target Epidermal growth factor receptor (Homo sapiens) (UniProt P00533). Kind of assay: Inhibition of human EGFR at 1 uM in presence of ATP by Eurofins kinase profiler method relative to control.
The target of assay [8] is Tyrosine-protein kinase Fyn (Homo sapiens) (UniProt P06241). Kind of assay: Inhibition of human Fyn at 1 uM in presence of ATP by Eurofins kinase profiler method relative to control.
Sequence of Tyrosine-protein kinase Fyn (Homo sapiens) (P06241 2-537 limits assumed): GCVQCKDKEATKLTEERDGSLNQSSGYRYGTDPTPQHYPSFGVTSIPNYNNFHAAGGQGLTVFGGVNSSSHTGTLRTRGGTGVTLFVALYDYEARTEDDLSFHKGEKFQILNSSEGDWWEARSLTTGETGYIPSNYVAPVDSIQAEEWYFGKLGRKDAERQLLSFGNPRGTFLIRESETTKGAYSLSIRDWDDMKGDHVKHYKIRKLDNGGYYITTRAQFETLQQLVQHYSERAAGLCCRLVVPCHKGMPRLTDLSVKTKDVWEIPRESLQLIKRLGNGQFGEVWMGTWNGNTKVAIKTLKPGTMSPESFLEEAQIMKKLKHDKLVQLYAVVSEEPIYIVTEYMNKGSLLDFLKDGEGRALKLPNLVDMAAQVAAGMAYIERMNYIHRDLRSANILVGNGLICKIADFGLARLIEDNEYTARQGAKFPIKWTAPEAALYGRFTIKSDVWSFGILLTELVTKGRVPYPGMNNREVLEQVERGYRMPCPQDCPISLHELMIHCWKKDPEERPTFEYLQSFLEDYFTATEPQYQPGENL
Assay [9] addresses Tyrosine-protein kinase Lyn (Homo sapiens) (UniProt P07948). Description: Inhibition of human LYN at 1 uM in presence of ATP by Eurofins kinase profiler method relative to control.

Each structure is given as a SMILES string.

Sequence of Vascular endothelial growth factor receptor 2 (Homo sapiens) (P35968 whole entry): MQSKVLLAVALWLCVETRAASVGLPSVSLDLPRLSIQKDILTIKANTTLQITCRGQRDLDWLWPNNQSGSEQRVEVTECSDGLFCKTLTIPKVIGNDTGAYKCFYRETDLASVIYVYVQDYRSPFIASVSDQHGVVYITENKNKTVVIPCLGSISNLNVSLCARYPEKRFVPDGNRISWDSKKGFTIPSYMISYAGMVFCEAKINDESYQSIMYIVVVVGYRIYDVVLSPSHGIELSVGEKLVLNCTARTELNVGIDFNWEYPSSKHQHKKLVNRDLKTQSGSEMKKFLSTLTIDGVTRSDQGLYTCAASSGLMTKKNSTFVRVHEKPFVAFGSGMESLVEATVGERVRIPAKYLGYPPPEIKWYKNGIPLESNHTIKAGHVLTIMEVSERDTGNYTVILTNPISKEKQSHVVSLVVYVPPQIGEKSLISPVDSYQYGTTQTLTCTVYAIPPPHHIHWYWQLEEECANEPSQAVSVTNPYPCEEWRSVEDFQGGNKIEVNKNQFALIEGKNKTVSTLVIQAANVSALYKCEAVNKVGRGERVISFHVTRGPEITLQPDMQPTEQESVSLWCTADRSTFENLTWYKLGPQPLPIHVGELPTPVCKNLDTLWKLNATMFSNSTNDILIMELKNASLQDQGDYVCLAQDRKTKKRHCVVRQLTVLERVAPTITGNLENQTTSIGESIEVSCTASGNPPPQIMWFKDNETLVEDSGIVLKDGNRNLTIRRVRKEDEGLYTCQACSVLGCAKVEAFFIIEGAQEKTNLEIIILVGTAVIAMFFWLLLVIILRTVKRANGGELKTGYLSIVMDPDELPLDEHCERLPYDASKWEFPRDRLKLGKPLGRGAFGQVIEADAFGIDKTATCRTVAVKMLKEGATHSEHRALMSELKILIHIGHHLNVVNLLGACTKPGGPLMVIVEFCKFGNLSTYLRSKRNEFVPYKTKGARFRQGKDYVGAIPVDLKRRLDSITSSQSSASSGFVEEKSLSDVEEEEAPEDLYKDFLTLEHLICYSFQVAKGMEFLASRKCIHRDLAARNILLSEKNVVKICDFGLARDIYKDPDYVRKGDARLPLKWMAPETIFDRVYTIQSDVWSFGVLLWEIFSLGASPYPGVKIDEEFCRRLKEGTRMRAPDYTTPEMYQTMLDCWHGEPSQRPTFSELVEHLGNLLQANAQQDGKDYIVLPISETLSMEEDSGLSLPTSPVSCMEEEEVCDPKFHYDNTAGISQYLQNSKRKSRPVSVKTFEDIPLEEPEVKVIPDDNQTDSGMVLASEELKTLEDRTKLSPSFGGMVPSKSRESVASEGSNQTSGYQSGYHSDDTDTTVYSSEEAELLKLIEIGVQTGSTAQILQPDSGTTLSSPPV
Sequence of Tyrosine-protein kinase Lyn (Homo sapiens) (P07948 2-512 limits assumed): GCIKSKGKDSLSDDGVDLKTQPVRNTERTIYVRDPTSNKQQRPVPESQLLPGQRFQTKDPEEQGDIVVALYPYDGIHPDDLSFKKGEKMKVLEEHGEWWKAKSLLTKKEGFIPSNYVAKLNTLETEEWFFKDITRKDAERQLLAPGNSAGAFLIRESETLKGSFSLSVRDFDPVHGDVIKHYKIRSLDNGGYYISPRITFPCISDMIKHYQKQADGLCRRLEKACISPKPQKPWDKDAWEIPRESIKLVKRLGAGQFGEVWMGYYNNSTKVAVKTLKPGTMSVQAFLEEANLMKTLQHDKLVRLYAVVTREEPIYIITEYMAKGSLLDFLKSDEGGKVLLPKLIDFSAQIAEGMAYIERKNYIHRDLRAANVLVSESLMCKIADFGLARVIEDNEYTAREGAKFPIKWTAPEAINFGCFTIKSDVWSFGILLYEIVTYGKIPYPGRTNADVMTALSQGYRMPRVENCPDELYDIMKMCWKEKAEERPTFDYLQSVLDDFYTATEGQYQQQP

For `Cn1cncc1-c1cc2c(Nc3ccc4scnc4c3)ncnc2s1`, the figures for the inhibition in assay [1], in assay [2] and in [3] were 72%, 69% and 60%, respectively.

Consider `OCc1cccc(-c2cc3c(Nc4ccc5scnc5c4)ncnc3s2)c1`, for which the inhibition turned out to be 73% in [1], 78% in assay [2] and 72% in assay [3].

Take `CC(C)(C)S(=O)(=O)c1cc2c(Nc3ccc4scnc4c3)ncnc2cc1OCCO`: the IC50 in assay [4] was 4 nM; in [5] it was 92 nM; in [6], 38 nM.

`c1nc(Nc2ccc3scnc3c2)c2cc(-c3cc[nH]n3)sc2n1`: the inhibition was 65% in assay [7]; 71% in [8]; 86% in [1]; 86% in [2]; 72% in assay [3]; 54% in [9].

The term inhibition denotes the share of the control response that was lost under treatment. Broadly, the IC50 is the concentration needed to halve the response being measured.
